The conditions of data set [1]: cited from earlier work.
A short description of data set [2]: Storage stability of crystalline form A (HPLC). It is filed as physicochemical. On the procedure: (§1) Column: 4.6×250 mm 5 μm C18 column; flow rate: 2 ml/min; injection volume: 10 μl; column temperature: 35° C.; detection wavelength: 217 nm; mobile phase: acetonitrile/water/trifluoroacetic acid; Elution condition: water (60%): acetonitrile (40%): trifluoroacetic acid (0.1%); detection limit: 10 ng.
[…] […] Therefore, crystalline form A of compound I prepared by the method of the present invention has unique stability.

The nature of data set [3]: Stability comparison at 40° C. (HPLC purity). Type of data set: physicochemical. Here is the method:
as §1
The purity mentioned in the following Examples is HPLC purity.
Compound I from example 2, example 3 and example 4 were obtained, and subjected to stability test at 40° C., respectively. […] Therefore, crystalline form A of compound I prepared by the method of the present invention has unique stability.

The conditions of data set [4]: cited from earlier work. This is another data set of the same source.

The structures appear in SMILES notation.

`CCCCC[C@H](O)/C=C/[C@@H]1[C@H]2C/C(=C/CCCC(=O)O)O[C@H]2C[C@H]1O` [Epoprostenol]: in data set [1], the Half-life in circulation was 3 to 5 min.

For `CCCCC[C@H](O)CC[C@@H]1[C@H]2Cc3cccc(OCC(=O)O)c3C[C@H]2C[C@H]1O` [Example 4], the “Degradation on storage (HPLC)” value in data set [2] (stored at 0° C. for 12 months), in data set [2] (stored at 20° C. for 6 months) and in data set [2] (stored at 40° C. for 2 months) was “did not degrade at all” in each case. The “Purity at 0 day (40° C.)” value in data set [3] (0 day) amounted to 99.90%. For the same compound, the “Purity at 10 day (40° C.)” value in data set [3] (10 day) is reported as 99.91%. Also, the “Purity at 30 day (40° C.)” value in data set [3] (30 day) worked out at 99.89%. Further, the “Purity at 90 day (40° C.)” value in data set [3] (90 day) is 99.88%.

`CCCCC[C@H](O)CC[C@@H]1[C@H]2Cc3cccc(OCC(=O)O)c3C[C@H]2C[C@H]1O` [Treprostinil]: the “Stability under physiological conditions” value in data set [4] is reported as “stable under physiological conditions”.

Values taken from patent US9278903B2, “Crystal form of prostaglandin analogue, and preparation method and use thereof” (Shanghai Techwell Biopharmaceutical Co., Ltd., priority 2012, dated 2016).
